In patent US4684651A, “Alkylenedioxybenzene and acid addition salts thereof useful as hypotensives” (Mitsubishi Chemical Industries Limited, priority 1981, dated 1987):
Structures can show the parent of a compound that is named as a salt.

Experiments:
[1] = system: spontaneous hypertensive rats (SHR); experiment: Hypotensive activity in spontaneous hypertensive rats (oral); type: in vivo; conditions: Rattus norvegicus, relative to blood pressure before medication, read-out: Hypotensive effect (average % drop in blood pressure); for inhibition in vivo at 1 mg/kg: 1 mg/kg p.o.; for inhibition in vivo at 3 mg/kg: 3 mg/kg p.o.; for inhibition in vivo at 10 mg/kg: 10 mg/kg p.o.
Method: The hypotensive activities of the compounds of this invention were tested as follows: The test animals used were spontaneous hypertensive rats (SHR) of 5 to 7 month old weighing 300 to 370 g. The blood pressure and the heart rate were measured bloodily under no anesthesia by means of a catheter which has been inserted through the tail's artery under ether anesthesia, thereby determining the average blood pressure and heart rate before medication. […] The hypotensive effect was expressed as percent drop relative to the blood pressure before medication.

[2] = Acute toxicity (LD50) in mice; conditions: mouse, in vivo, iv, Litchfield-Wilcoxon method
Method: The values for acute toxicity (LD50) were calculated by the Litchfield-Wilcoxon method from the data obtained on mice.

SMILES | inhibition in vivo at 1 mg/kg [1] [%] | inhibition in vivo at 3 mg/kg [1] [%] | inhibition in vivo at 10 mg/kg [1] [%] | LD50 [2] [mg/kg]
COc1ccccc1N1CCN(CC(O)c2ccc3c(c2)OCO3)CC1 (centres unmarked) [Compound 2, 5-[2-[4-(2-methoxyphenyl)-1-piperazinyl]-1-hydroxyethyl]-1,3-benzodioxole] | 10.2 | 19.2 | 36.5 | –
OC(CN1CCN(c2ccccc2)CC1)c1ccc2c(c1)OCCCO2 (centres unmarked) [Compound 8, 7-[2-(4-phenyl-1-piperazinyl)-1-hydroxyethyl]-1,5-benzodioxepine] | 8.6 | 14.1 | 25 | –
OC(CCN1CCN(c2ccccc2Cl)CC1)c1ccc2c(c1)OCCO2 (centres unmarked) [Compound 16] | 7.9 | 11.9 | 29.8 | –
COc1ccccc1N1CCN(CCC(O)c2ccc3c(c2)OCCO3)CC1 (centres unmarked) [Compound 17] | 8.1 | 20.5 | 53.1 | –
OC(CCCN1CCN(c2ccccc2)CC1)c1ccc2c(c1)OCO2 (centres unmarked) [Compound 19, 5-[4-(4-phenyl-1-piperazinyl)-1-hydroxybutyl]-1,3-benzodioxole dihydrochloride] | 12.8 | 45.9 | 56.6 | –
OC(CCCN1CCN(c2ccccc2)CC1)c1ccc2c(c1)OCCO2 (centres unmarked) [Compound 20, 6-[4-(4-phenyl-1-piperazinyl)-1-hydroxybutyl]-1,4-benzodioxane] | 13.7 | 38.4 | 56.1 | –
OC(CCCN1CCN(c2ccccc2)CC1)c1ccc2c(c1)OCCCO2 (centres unmarked) [Compound 21] | 19.8 | 30.9 | 43.4 | 184
OC(CCCN1CCN(c2ccccn2)CC1)c1ccc2c(c1)OCCCO2 (centres unmarked) [Compound 25] | 30.3 | 35.8 | 43.9 | 68.5
OC(CCCCN1CCN(c2ccccc2)CC1)c1ccc2c(c1)OCO2 (centres unmarked) [Compound 26, 5-[5-(4-phenyl-1-piperazinyl)-1-hydroxypentyl]-1,3-benzodioxole] | 13 | 21.9 | 52.6 | –
OC(CCCCN1CCN(c2ccccc2)CC1)c1ccc2c(c1)OCCCO2 (centres unmarked) [Compound 29, 7-[5-(4-phenyl-1-piperazinyl)-1-hydroxypentyl]-1,5-benzodioxepine] | 10.8 | 27.5 | 50.7 | –
OC(CCCN1CCN(c2ccccn2)CC1)c1ccc2c(c1)OCO2 (centres unmarked) [Compound 31, 5-[4-[4-(2-pyridyl)-1-piperazinyl]-1-hydroxybutyl]-1,3-benzodioxole] | 11.5 | 33.6 | 45.7 | –
COc1ccccc1N1CCN(CCCC(O)c2ccc3c(c2)OCCO3)CC1 (centres unmarked) [Compound 33, 6-[4-[4-(2-methoxyphenyl)-1-piperazinyl]-1-hydroxybutyl]-1,4-benzodioxane] | 22.6 | 41.8 | 43.2 | –
COc1ccccc1N1CCN(CCCC(O)c2ccc3c(c2)OCCCO3)CC1 (centres unmarked) [Compound 34, 7-[4-[4-(2-methoxyphenyl)-1-piperazinyl]-1-hydroxybutyl]-1,5-benzodioxepine] | 24.5 | 40.4 | 48 | –
OC(CCCCN1CCN(c2ccccn2)CC1)c1ccc2c(c1)OCCCO2 (centres unmarked) [Compound 36] | 10.1 | 19.4 | 31 | –
COc1ccccc1N1CCN(CCCCC(O)c2ccc3c(c2)OCCCO3)CC1 (centres unmarked) [Compound 37] | 15.6 | 30.4 | 45.7 | –
O=C(CCN1CCN(c2cccc(F)c2)CC1)c1ccc2c(c1)OCCO2 [Compound 51] | 5.9 | 14.5 | 49.9 | –

SMILES | inhibition in vivo at 1 mg/kg [1] [%] | inhibition in vivo at 3 mg/kg [1] [%] | inhibition in vivo at 10 mg/kg [1] [%] | LD50 [2] [mg/kg]
O=C(CCN1CCN(c2ccccc2)CC1)c1ccc2c(c1)OCCCO2 [Compound 56] | 6.2 | 17 | 31.5 | –
O=C(CCCN1CCN(c2ccccc2)CC1)c1ccc2c(c1)OCCO2 [Compound 58, 6-[4-(4-phenyl-1-piperazinyl)butyryl]-1,4-benzodioxane] | 12.7 | 51.6 | 62.7 | –
O=C(CCCN1CCN(c2ccccc2)CC1)c1ccc2c(c1)OCCCO2 [Compound 59] | 9.8 | 34.4 | 40.5 | –
O=C(CCCCN1CCN(c2ccccc2)CC1)c1ccc2c(c1)OCO2 [Compound 64, 5-[5-(4-phenyl-1-piperazinyl]valeryl]-1,3-benzodioxole] | 10.1 | 21.3 | 54.5 | 45.7
O=C(CCCCN1CCN(c2ccccc2)CC1)c1ccc2c(c1)OCCO2 [Compound 65, 6-[5-(4-phenyl-1-piperwzinyl)valeryl]-1,4-benzodioxane] | 21.7 | – | – | –
O=C(CCCCN1CCN(c2ccccc2)CC1)c1ccc2c(c1)OCCCO2 [Compound 68, 7-[5-(4-phenyl-1-piperazinyl)valeryl]-1,5-benzodioxepine] | 12.5 | 28.6 | 44 | –
COc1ccccc1N1CCN(CCCCC(=O)c2ccc3c(c2)OCCCO3)CC1 [Compound 69] | 23.8 | – | – | –
O=C(CCCN1CCN(c2ccccn2)CC1)c1ccc2c(c1)OCO2 [Compound 71, 5-[4-[4-(2-pyridyl)-1-piperazinyl]butyryl]-1,3-benzodioxole] | 11.5 | 20.9 | 43.1 | –
O=C(CCCN1CCN(c2ccccn2)CC1)c1ccc2c(c1)OCCO2 [Compound 72, 6-[4-[4-(2-pyridyl)-1-piperazinyl]butyryl]-1,4-benzodioxane] | 10.1 | 25.3 | 46.4 | –
COc1ccccc1N1CCN(CCCC(=O)c2ccc3c(c2)OCCO3)CC1 [Compound 74, 6-[4-[4-(2-methoxyphenyl)-1-piperazinyl]butyryl]-1,4-benzodioxane] | 29.9 | – | – | –
COc1ccccc1N1CCN(CCCCC(=O)c2ccc3c(c2)OCCO3)CC1 [Compound 76, 6-[5-[4-(2-methoxyphenyl)-1-piperazinyl]varleryl]-1,4-benzodioxane] | 8.6 | 23.7 | 56.7 | –
COc1ccccc1N1CCN(CCCCC(=O)c2ccc3c(c2)OCO3)CC1 [Compound 77, 5-[5-[4-(2-methoxyphenyl)-1-piperazinyl]valeryl]-1,3-benzodioxole] | 12.9 | 21.5 | 34.5 | –
O=C(CCCCN1CCN(c2ccccn2)CC1)c1ccc2c(c1)OCCCO2 [Compound 78, 7-[5-[4-(2-pyridyl)-1-piperazinyl]valeryl]-1,5-benzodioxepine] | 13.7 | 24.9 | 27.8 | –
COc1ccccc1N1CCN(CCCCC(=O)c2ccc3c(c2)OCC(C)(C)CO3)CC1 [Compound 79, 7-[5-[4-(2-methoxyphenyl)-1-piperazinyl]valeryl]-3,3-dimethyl-1,5-benzodioxepine] | 8 | 15.8 | 32.5 | –
COc1ccccc1N1CCN(CCN(C(C)=O)c2ccc3c(c2)OCO3)CC1 [Compound 81, N-[2-[4-(2-methoxyphenyl)-1-piperazinyl]ethyl]-N-acetyl-3,4-methylenedioxyaniline hydrochloride] | 15.5 | 21.2 | – | –
